Measurements from US5942502A, “Method of treating diseases resulting from calcium metabolism disorders” (priority 1998, dated 1999).
Entries after “also recorded” stand apart in the source; their conditions may differ. Like-named read-outs stand apart in the source and are kept apart here.

Columns and labels:
[1] = Single-dose clinical study of ST-630: urinary excretions of electrolytes; assay type: in vivo, human
Excerpt: (3) Urinalysis: pH, occult blood, protein, glucose, bilirubin, urobilinogen, sediment and creatinine clearance (24-hour method)
(2) Urinary excretion ST-630, Ca, P, Mg, Na, K, creatinine, c-AMP*^3 and hydroxyproline*^3

[2] = Repeated-dose clinical study of ST-630 (7 days, postprandial); assay type: in vivo, human; conditions: 1.0 μg/day for 7 days
Method: 4.1. Dosing schedule (postprandial administration)
*^1 : Blood samples are collected only immediately before
*^2 : Blood samples are collected only immediately before
*^3 : Only cereatinie are determined immediately before and 12 hr
after administration on day 1, immediately before and 12, 24, 48, 72, 96
and 120 hr after the last administration, and at followup examination. On
days 2-6, blood samples are collected only immediately before
ST-630 was administered postprandially at a daily dose of 1.0 μg for 7 days.

[3] = Study of dietary effect on the absorption of ST-630 (crossover); assay type: in vivo, human; conditions: 2.0 μg, postprandial (30 min after meal) compared with fasting (FIG. 13)
Method: (§1) (1) Serum concentrations: ST-630, Ca, P, Mg and Al-P
*: Administration at 30 min after meal.
The dietary effect on the absorption of ST-630 was studied by the crossover method at the dose of 2.0 μg.

[4] = Overall safety / tolerance between effectiveness and toxicity in humans; assay type: in vivo, human
Ovariectomized rats = experiment: Ovariectomized rat model: serum Ca and P, femur dry weight, ash weight and breaking load; assay type: in vivo, Female Fisher rats; conditions: for Serum Pi / Breaking load (femur) / Serum Ca / Ash weight (femur) / Dry weight (femur): three times a week for 23 weeks, Mean ± SD; for Serum Pi: OVX 2.6 ± 0.4; for Breaking load (femur): OVX 9.0 ± 0.9; for Serum Ca: OVX 9.7 ± 0.2; for Ash weight (femur): OVX 285 ± 19; for Dry weight (femur): OVX 431 ± 26
Excerpt: Female Fisher rats, 9-10 months old, were ovariectomized and were fed a vitamin D-deficient diet containing 0.45% calcium and 0.3% phosphorus. The rats were given 15IU of vitamin D3 orally once a week throughout this experiment. Four weeks after the surgery, the rats were orally adminstered three times a week for 23 weeks with ST-630 (30, 100 or 300 pmole/kg) or 1α-hydroxyvitamin D3 (100 or 300 pmole/kg).

[5] = Single-dose clinical study of ST-630: blood biochemistry / serum electrolytes; assay type: in vivo, human
Excerpt: (2) Blood biochemistry: Total protein fraction, BUN, creatinine, total cholesterol, neutral fat, phospholipid, serum electrolytes (Na, K, Cl, Ca, P, Mg), Al-P, GOT, GPI, LDH, γ-GTP, CPK, blood glucose, HBs antigen/antibody*^1, serologic test for syphilis, activated partial thrombo-plastin time *^2 and prothrombin time *^2
as §1

[6] = Acute toxicity (LD50), single dose; assay type: in vivo, rat; conditions: rat, in vivo; single (acute) dose, male rats, at 14 days
Excerpt: (§2) LD50 data represent the dose administered resulting in the death of 50% of the test group.

male rats = experiment: Acute toxicity (LD50), single dose; assay type: in vivo, rat; conditions: rats, from LD50
Excerpt: as §2

female beagle dogs = experiment: Chronic dosing toxicity, three months oral; assay type: in vivo, dog (beagle)
Method: With respect to chronic dosing, a group of six female beagle dogs were given 0.3 mg/kg of either ST-630 or 1α-hydroxyvitamin D3 orally each day for three months.

[7] = Subjective and objective symptoms (incl. ESR) in the clinical studies of ST-630; assay type: in vivo, human
Excerpt: 2) Questioning, auscultation, percussion
5. Subjective and objective symptoms

[8] = system: vitamin D responsive systems of vitamin D-deficient animals; conditions: cited from earlier work; for activity relative to 1,25-(OH)2 D3: vitamin D responsive systems, vitamin D-deficient animals, times that of 1,25-(OH)2 D3
[9] = compared with 1α-hydroxyvitamin D3
[10] = dose response over the doses tested
[11] = single dose 0.25, 0.5, 1 and 2 μg/man (FIGS. 1-4)
[12] = single doses 0.0125 μg to 2.0 μg
[13] = 0.0125 μg single dose, subject 1, last value, no date
[14] = 2.0 μg single dose, subject 8, last value, no date
[15] = vitamin D-like activity compared with 1,25-dihydroxycholecalciferol

## C=C1/C(=C\C=C2/CCC[C@]3(C)[C@@H]([C@H](C)CCCC(O)(C(F)(F)F)C(F)(F)F)CC[C@@H]23)C[C@@H](O)C[C@@H]1O [ST-630, 26,26,26,27,27,27-hexafluoro-1α,25-dihydroxycholecalciferol]
[1]; single dose 2.0 μg
  total urinary Ca excretion: increases
  urinary Ca/Cr ratio: increases
[1]; single doses below 2.0 μg (FIGS. 5-12)
  urinary electrolytes: no significant increases
[2]; postprandial
  serum Ca concentration change: tended to be elevated slightly but the change was within the normal range
  urinary Ca/Cr ratio: increased with the number of dosings
[2]; after completion of administration
  recovery of urinary Ca/Cr ratio: recovered to the control value immediately after completion of administration
[3]
  AUC (area under the serum concentration curve), postprandial versus fasting: slightly higher
[4]
  calcium absorption: promoted calcium absorption
  hypercalcemia: no hypercalcemia
  safety: no remarkable problem on safety
[4]; up to 2.0 μg
  "window" or tolerance between effectiveness and toxicity in humans: relatively large
Ovariectomized rats; 30 pmole/kg p.o.
  Serum Pi: 3.6 ± 0.3 mg/100 ml
  Breaking load (femur): 9.7 ± 0.8 kg
  Serum Ca: 9.9 ± 0.4 mg/100 ml
  Ash weight (femur): 298 ± 22 mg
  Dry weight (femur): 449 ± 29 mg
Ovariectomized rats; 100 pmole/kg p.o.
  Serum Pi: 4.8 ± 0.2 mg/100 ml
  Breaking load (femur): 10.6 ± 0.5 kg
  Serum Ca: 10.6 ± 04 mg/100 ml
  Ash weight (femur): 319 ± 12 mg
  Dry weight (femur): 472 ± 21 mg
Ovariectomized rats; 300 pmole/kg p.o.
  Serum Pi: 5.3 ± 0.3 mg/100 ml
  Breaking load (femur): 12.4 ± 1.3 kg
  Serum Ca: 11.7 ± 0.7 mg/100 ml
  Ash weight (femur): 362 ± 32 mg
  Dry weight (femur): 538 ± 47 mg
Ovariectomized rats; [9]
  prevention of the decrease of ash weight of the femur: more potently
  prevention of the decrease of breaking load of the femur: more potently
  prevention of the decrease of dry weight of the femur: more potently
Ovariectomized rats; compared with 1α-hydroxyvitamin D3 at doses causing the same increase of serum calcium (FIG. 24)
  increase of mechanical strength of the bone: more potently
Ovariectomized rats; [10]
  serum calcium level: increased dose-dependently
  serum phosphorus level: increased dose-dependently
[5]; 0.5 μg, 1 μg and 2 μg (FIGS. 2-4)
  toxicity at higher doses in humans: without toxicity problems
[5]; [11]
  serum Ca change: No major change
  serum Mg change: No major change
  serum P change: No major change
[5]; [12]
  blood biochemistry change: No change
  serum electrolytes change: No change
[6]
  LD50 at 336 h: 0.043 mg/kg
Male rats
  toxicity relative to 1α-hydroxyvitamin D3: about five times more toxic
Female beagle dogs; 0.3 mg/kg orally each day for three months
  deaths: all six dogs
Female beagle dogs; conclusion for rats and dogs
  toxicity relative to 1α-hydroxyvitamin D3: much more toxic
[7]; 0.0125 μg single dose, subject 1, date 2/4 (before: 3)
  ESR 1 h: 3
[7]; 0.0125 μg single dose, subject 1, date 2/4 (before: 7)
  ESR 2 h: 8
[7]; 0.0125 μg single dose, subject 1, date 2/8 (before: 3)
  ESR 1 h: 3
[7]; 0.0125 μg single dose, subject 1, date 2/8 (before: 7)
  ESR 2 h: 8
[7]; 0.0125 μg single dose, subject 1, follow-up examination 2/15 (before: 3)
  ESR 1 h: 13
[7]; 0.0125 μg single dose, subject 1, follow-up examination 2/15 (before: 7)
  ESR 2 h: 34
[7]; [13]
  ESR 1 h: 1
  ESR 2 h: 8
[7]; 2.0 μg single dose, subject 8, date 8/15 (before: 5)
  ESR 1 h: 4
[7]; 2.0 μg single dose, subject 8, date 8/15 (before: 8)
  ESR 2 h: 8
[7]; 2.0 μg single dose, subject 8, date 8/19 (before: 5)
  ESR 1 h: 4
[7]; 2.0 μg single dose, subject 8, date 8/19 (before: 8)
  ESR 2 h: 11
[7]; 2.0 μg single dose, subject 8, follow-up examination 8/27 (before: 5)
  ESR 1 h: 11
[7]; 2.0 μg single dose, subject 8, follow-up examination 8/27 (before: 8)
  ESR 2 h: 27
[7]; [14]
  ESR 1 h: 3
  ESR 2 h: 8
[7]; repeated-dose study, 1.0 μg/day, 7 days, subjects 1-8
  Symptom: None and No symptom
[7]; single dose 0.0125 μg (Step 1)
  increase in erythrocyte sedimentation rate, number of cases: one case
[7]; single dose 0.25 μg (Step 5)
  headache (symptom): Headache; also recorded: one case
[7]; single dose 2.0 μg (Step 8)
  increase in erythrocyte sedimentation rate, number of cases: one case
[7]; study of dietary effect, 2.0 μg, subjects 1-10
  Symptom: None and No symptom
[8]; listed as 26,26,26,27,27,27-F6 -1,25-(OH)2 D3
  activity relative to 1,25-(OH)2 D3: at least ten times greater
[8]; listed as 26,26,26,27,27,27-hexafluoro derivative of 1α,25-dihydroxycholecalciferol
  activity relative to 1,25-(OH)2 D3: at least ten times greater
[8]; listed as 26,26,26,27,27,27-hexafluoro-1α,25-dihydroxyvitamin D3
  activity relative to 1,25-(OH)2 D3: about ten times more active
[8]; [15]
  ability to mobilize calcium from bone: substantially greater
  ability to stimulate calcium transport in the intestine: substantially greater
  anti-rachitic activity according to the rat line test: substantially greater
